Measurements reported in US11845760B2, “PRMT5 inhibitors” (AMGEN INC., priority 2020, dated 2023).
Read-outs that look alike come from different tables or passages of the source.

Key:
HCT116 MTAP null cells = assay: HCT116 MTAP null cell line proliferation (CellTiter-Glo cell viability, 6 days); type: cell-based; details: HCT116 MTAP null cells, 6 days of treatment, CellTiter-Glo cell viability, read-out: HCT-116 MTAP null IC50
Procedure, shortened: (§1)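 Isogenic HCT116 pair (both MTAP alleles knocked out vs parent) in RPMI 1640 + 10% FBS, seeded overnight at 37° C, 5% CO2, then exposed 6 days to 8- or 9-point 1:3 dilutions from 1 or 10 μM. CellTiter-Glo luminescence; IC50 from sigmoidal fit, Hill slope fixed −1, top 100%, or 4-parameter logistic.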

HCT116 WT cells = assay: HCT116 WT cell line proliferation (CellTiter-Glo cell viability, 6 days); type: cell-based; details: HCT116 WT (parent) cells, 6 days of treatment, CellTiter-Glo cell viability, read-out: HCT-116 WT IC50
Procedure, shortened: as §1

IC50 (HCT116 MTAP null cells) [nM]	IC50 (HCT116 WT cells) [nM]	IC50 (HCT116 MTAP null cells; HCT116-MTAP null, 144 h) [nM]	IC50 (HCT116 WT cells; Homo sapiens, HCT-116, 144 h) [nM]	SMILES
151	5830	–	–	Nc1nc2cc(F)c(C(=O)N3CCOCC3c3ccc(OC(F)F)nc3)cc2c2c1COC2 (racemic) [Example 385, (4-amino-7-fluoro-1,3-dihydrofuro[3,4-c]quinolin-8-yl)((3R)-3-(6-(difluoromethoxy)-3-pyridinyl)-4-morpholinyl)methanone and (4-amino-7-fluoro-1,3-dihydrofuro[3,4-c]quinolin-8-yl)((3S)-3-(6-(difluoromethoxy)-3-pyridinyl)-4-morpholinyl)methanone]
344	5020	–	–	Nc1nc2cnc(C(=O)N3CCOCC3c3ccc(OC(F)(F)F)cc3F)cc2c2c1COC2 (racemic) [Example 386, (4-amino-1,3-dihydrofuro[3,4-c][1,7]naphthyridin-8-yl)((3R)-3-(2-fluoro-4-(trifluoromethoxy)phenyl)-4-morpholinyl)methanone and (4-amino-1,3-dihydrofuro[3,4-c][1,7]naphthyridin-8-yl)((3S)-3-(2-fluoro-4-(trifluoromethoxy)phenyl)-4-morpholinyl)methanone]
193	7250	–	–	Nc1nc2cnc(C(=O)N3CCOCC3c3ccc(C(F)(F)F)cc3F)cc2c2c1COC2 (racemic) [Example 387, (4-amino-1,3-dihydrofuro[3,4-c][1,7]naphthyridin-8-yl)((3R)-3-(2-fluoro-4-(trifluoromethyl)phenyl)-4-morpholinyl)methanone and (4-amino-1,3-dihydrofuro[3,4-c][1,7]naphthyridin-8-yl)((3S)-3-(2-fluoro-4-(trifluoromethyl)phenyl)-4-morpholinyl)methanone]
–	–	838	32800	N#Cc1ccc(C2COCCN2C(=O)c2cc3c4c(c(N)nc3cn2)COC4)cc1 (racemic) [Example 388, 4-((3R)-4-((4-amino-1,3-dihydrofuro[3,4-c][1,7]naphthyridin-8-yl)carbonyl)-3-morpholinyl)benzonitrile and 4-((3S)-4-((4-amino-1,3-dihydrofuro[3,4-c][1,7]naphthyridin-8-yl)carbonyl)-3-morpholinyl)benzonitrile]
–	–	52	1610	C[C@H]1COC[C@@H](c2ccc(C#N)cc2)N1C(=O)c1cc2c3c(c(N)nc2cn1)COC3 (racemic) [Example 389, 4-((3R,5S)-4-((4-amino-1,3-dihydrofuro[3,4-c][1,7]naphthyridin-8-yl)carbonyl)-5-methyl-3-morpholinyl)benzonitrile and 4-((3S,5R)-4-((4-amino-1,3-dihydrofuro[3,4-c][1,7]naphthyridin-8-yl)carbonyl)-5-methyl-3-morpholinyl)benzonitrile]
165	6360	–	–	C[C@@H]1COC[C@H](c2ccc(OC(F)F)c(F)c2)N1C(=O)c1cc2c3c(c(N)nc2cn1)COC3 (racemic) [Example 390, (4-amino-1,3-dihydrofuro[3,4-c][1,7]naphthyridin-8-yl)((3R,5S)-3-(4-(difluoromethoxy)-3-fluorophenyl)-5-methyl-4-morpholinyl)methanone and (4-amino-1,3-dihydrofuro[3,4-c][1,7]naphthyridin-8-yl)((3S,5R)-3-(4-(difluoromethoxy)-3-fluorophenyl)-5-methyl-4-morpholinyl)methanone]
–	–	73	3390	CCOc1ccc(C2COCCN2C(=O)c2cc3c4c(c(N)nc3cc2Cl)COC4)nn1 (racemic) [Example 391, (4-amino-7-chloro-1,3-dihydrofuro[3,4-c]quinolin-8-yl)((3R)-3-(6-ethoxy-3-pyridazinyl)-4-morpholinyl)methanone and (4-amino-7-chloro-1,3-dihydrofuro[3,4-c]quinolin-8-yl)((3S)-3-(6-ethoxy-3-pyridazinyl)-4-morpholinyl)methanone]
–	–	216	> 10000	CCOc1ccc(C2COCCN2C(=O)c2cc3c4c(c(N)nc3cc2F)COC4)nn1 (racemic) [Example 392, (4-amino-7-fluoro-1,3-dihydrofuro[3,4-c]quinolin-8-yl)((3R)-3-(6-ethoxy-3-pyridazinyl)-4-morpholinyl)methanone and (4-amino-7-fluoro-1,3-dihydrofuro[3,4-c]quinolin-8-yl)((3S)-3-(6-ethoxy-3-pyridazinyl)-4-morpholinyl)methanone]
–	–	971	> 50000	CCOc1ccc([C@@H]2COCCN2C(=O)c2ccc3nc(N)c4c(c3c2)CO[C@@H]4C)nn1 (racemic) [Example 393, ((3R)-4-amino-3-methyl-1,3-dihydrofuro[3,4-c]quinolin-8-yl)((3R)-3-(6-ethoxy-3-pyridazinyl)-4-morpholinyl)methanone and ((3R)-4-amino-3-methyl-1,3-dihydrofuro[3,4-c]quinolin-8-yl)((3S)-3-(6-ethoxy-3-pyridazinyl)-4-morpholinyl)methanone]
–	–	725	20800	Nc1nc2cc(F)c(C(=O)N3CCC(c4ccc(C(F)(F)F)cn4)C3)cc2c2c1COC2 (racemic) [Example 412, (4-amino-7-fluoro-1,3-dihydrofuro[3,4-c]quinolin-8-yl)((3R)-3-(5-(trifluoromethyl)-2-pyridinyl)-1-pyrrolidinyl)methanone and (4-amino-7-fluoro-1,3-dihydrofuro [3,4-c]quinolin-8-yl)((3S)-3-(5-(trifluoromethyl)-2-pyridinyl)-1-pyrrolidinyl)methanone]
–	–	337	11400	C[C@H]1OCc2c1c(N)nc1ccc(C(=O)N3C[C@@H](c4ccccc4)[C@H](c4ccccc4)C3)cc21 (racemic) [Example 431, ((3R)-4-amino-3-methyl-1,3-dihydrofuro[3,4-c]quinolin-8-yl)((3R,4R)-3,4-diphenyl-1-pyrrolidinyl)methanone and ((3R)-4-amino-3-methyl-1,3-dihydrofuro[3,4-c]quinolin-8-yl)((3S,4S)-3,4-diphenyl-1-pyrrolidinyl)methanone]
–	–	468	8220	C[C@H]1OCc2c1c(N)nc1ccc(C(=O)N3C[C@@H](c4ccc(F)cc4)[C@H](c4cc[nH]n4)C3)cc21 (racemic) [Example 434, ((3R)-4-amino-3-methyl-1,3-dihydrofuro[3,4-c]quinolin-8-yl)((3R,4S)-3-(4-fluorophenyl)-4-(1H-pyrazol-3-yl)-1-pyrrolidinyl)methanone and ((3R)-4-amino-3-methyl-1,3-dihydrofuro[3,4-c]quinolin-8-yl)((3S,4R)-3-(4-fluorophenyl)-4-(1H-pyrazol-3-yl)-1-pyrrolidinyl)methanone]
–	–	> 1000	> 10000	Nc1nc2ncc(C(=O)N3CCOCC3c3ccc(C(F)(F)F)cc3)cc2c2c1COC2 (racemic) [Example 483, rac-(4-amino-1,3-dihydrofuro[3,4-c][1,8]naphthyridin-8-yl)(3-(4-(trifluoromethyl)phenyl)morpholino)methanone]
–	–	764	318	N#Cc1cnc(C2COCCN2C(=O)c2ccc3nc(N)c4c(c3c2)COC4)cc1Cl (racemic) [Example 492, 4-chloro-6-[rac-(3S)-4-(4-amino-1,3-dihydrofuro[3,4-c]quinoline-8-carbonyl)morpholin-3-yl]pyridine-3-carbonitrile]
–	–	> 1000	> 10000	Nc1nc2ccc(C(=O)N3CCOCC3c3ccccc3)cc2c2c1COC2 (racemic) [Example 493, (4-amino-1,3-dihydrofuro[3,4-c]quinolin-8-yl)-[rac-(3S)-3-phenylmorpholin-4-yl]methanone]
–	–	352	14000	Nc1nc2cnc(C(=O)N3CCOCC3c3ccc(C(F)(F)F)cn3)cc2c2c1COC2 (racemic) [Example 494, (4-amino-1,3-dihydrofuro[3,4-c][1,7]naphthyridin-8-yl)-[rac-(3S)-3-[5-(trifluoromethyl)-2-pyridyl]morpholin-4-yl]methanone]
–	–	486	19800	Nc1nc2ccc(C(=O)N3CCOCC3c3ccc(OC(F)F)cc3)cc2c2c1COC2 (racemic) [Example 496, (4-amino-1,3-dihydrofuro[3,4-c]quinolin-8-yl)((3R)-3-(4-(difluoromethoxy)phenyl)-4-morpholinyl)methanone and (4-amino-1,3-dihydrofuro[3,4-c]quinolin-8-yl)((3S)-3-(4-(difluoromethoxy)phenyl)-4-morpholinyl)methanone]
–	–	477	26000	Cn1ncc2c3cc(C(=O)N4CCOCC4c4ccc(C(F)(F)F)cc4)ccc3nc(N)c21 (racemic) [Example 497, (4-amino-3-methyl-3H-pyrazolo[3,4-c]quinolin-8-yl)((3R)-3-(4-(trifluoromethyl)phenyl)-4-morpholinyl)methanone and (4-amino-3-methyl-3H-pyrazolo[3,4-c]quinolin-8-yl)((3S)-3-(4-(trifluoromethyl)phenyl)-4-morpholinyl)methanone]
–	–	711	21500	Cn1ncc2c3cc(C(=O)N4CCOCC4c4ccc(OC(F)(F)F)cc4)ccc3nc(N)c21 (racemic) [Example 498, (4-amino-3-methyl-3H-pyrazolo[3,4-c]quinolin-8-yl)((3R)-3-(4-(trifluoromethoxy)phenyl)-4-morpholinyl)methanone and (4-amino-3-methyl-3H-pyrazolo[3,4-c]quinolin-8-yl)((3S)-3-(4-(trifluoromethoxy)phenyl)-4-morpholinyl)methanone]
